Test system: MV-4-11 cells
Experiment: Gene expression microarray analysis (Affymetrix PrimeView) and GSEA
Assay type: cell-based, human
Set-up: RFU PODN (11730768_x_at) / Fold change /veh PODN (11730768_x_at) / RFU LINC00158 (11744669_a_at) / Fold change /veh LINC00158 (11744669_a_at) / RFU DUSP10 (11751237_a_at) / Fold change /veh DUSP10 (11751237_a_at) / RFU ID3 (11757404_x_at) / Fold change /veh ID3 (11757404_x_at) / RFU PLEKHG5 (11737974_s_at) / Fold change /veh PLEKHG5 (11737974_s_at) / RFU LRRC4B (11730491_at) / Fold change /veh LRRC4B (11730491_at) / RFU GIMAP4 (11747438_a_at) / Fold change /veh GIMAP4 (11747438_a_at) / RFU KRT8 (11758183_x_at) / Fold change /veh KRT8 (11758183_x_at) / RFU CNN1 (11734310_a_at) / Fold change /veh CNN1 (11734310_a_at) / RFU VPS37D (11726825_at) / Fold change /veh VPS37D (11726825_at) / RFU C10orf10 (11716522_x_at) / Fold change /veh C10orf10 (11716522_x_at) / RFU KIR2DL2 /// KIR2DL4 /// KIR2DL5A /// KIR2DL5B /// KIR2DS1 /// KIR2DS2 /// KIR2DS3 /// KIR2DS4 /// KIR3DL3 /// KIR3DL3 /// KIR3DS1 (11738374_at) / Fold change /veh KIR2DL2 /// KIR2DL4 /// KIR2DL5A /// KIR2DL5B /// KIR2DS1 /// KIR2DS2 /// KIR2DS3 /// KIR2DS4 /// KIR3DL3 /// KIR3DL3 /// KIR3DS1 (11738374_at) / RFU C1QL1 (11718748_at) / Fold change /veh C1QL1 (11718748_at) / RFU TMPRSS4 (11747572_a_at) / Fold change /veh TMPRSS4 (11747572_a_at) / RFU HAMP (11756126_x_at) / Fold change /veh HAMP (11756126_x_at) / RFU RNFT2 (11725882_a_at) / Fold change /veh RNFT2 (11725882_a_at) / RFU NR4A2 (11747474_a_at) / Fold change /veh NR4A2 (11747474_a_at) / RFU ABCC12 (11746883_a_at) / Fold change /veh ABCC12 (11746883_a_at) / RFU TMEM136 (11760407_x_at) / Fold change /veh TMEM136 (11760407_x_at) / RFU CLDN22 /// WWC2 (11732394_at) / Fold change /veh CLDN22 /// WWC2 (11732394_at) / RFU HLA-DPB1 (11760878_x_at) / Fold change /veh HLA-DPB1 (11760878_x_at) / RFU SPINT1 (11716480_a_at) / Fold change /veh SPINT1 (11716480_a_at) / RFU GAP43 (11754022_s_at) / Fold change /veh GAP43 (11754022_s_at) / RFU A4GNT (11735810_at) / Fold change /veh A4GNT (11735810_at) / RFU PRB3 (11715151_x_at) / Fold change /veh PRB3 (11715151_x_at) / RFU TUBB4B (11761932_at) / Fold change /veh TUBB4B (11761932_at) / RFU CAPN14 (11732068_a_at) / Fold change /veh CAPN14 (11732068_a_at) / RFU TMCC2 (11721928_a_at) / Fold change /veh TMCC2 (11721928_a_at) / RFU IRGQ (11745062_a_at) / Fold change /veh IRGQ (11745062_a_at) / RFU FAM174B (11720279_a_at) / Fold change /veh FAM174B (11720279_a_at) / RFU TMPRSS4 (11748680_a_at) / Fold change /veh TMPRSS4 (11748680_a_at) / RFU FAM212B (11763350_a_at) / Fold change /veh FAM212B (11763350_a_at) / RFU PLEKHG5 (11743358_a_at) / Fold change /veh PLEKHG5 (11743358_a_at) / RFU ZSCAN30 (11745921_a_at) / Fold change /veh ZSCAN30 (11745921_a_at) / RFU CMKLR1 (11741424_a_at) / Fold change /veh CMKLR1 (11741424_a_at) / RFU LOC101060620 /// MAPK8IP1 (11723275_at) / Fold change /veh LOC101060620 /// MAPK8IP1 (11723275_at) / RFU SPTSSB (11747773_x_at) / Fold change /veh SPTSSB (11747773_x_at) / RFU PRSS12 (11739890_at) / Fold change /veh PRSS12 (11739890_at) / RFU BIN1 (11741810_x_at) / Fold change /veh BIN1 (11741810_x_at) / RFU WNT11 (11732464_a_at) / Fold change /veh WNT11 (11732464_a_at) / RFU C10orf10 (11716521_a_at) / Fold change /veh C10orf10 (11716521_a_at) / RFU C5orf56 (11738089_at) / Fold change /veh C5orf56 (11738089_at) / RFU CYB561 (11721691_x_at) / Fold change /veh CYB561 (11721691_x_at) / RFU ANKRD19P (11752326_a_at) / Fold change /veh ANKRD19P (11752326_a_at) / RFU OR2T12 /// OR2T33 /// OR2T8 (11738714_s_at) / Fold change /veh OR2T12 /// OR2T33 /// OR2T8 (11738714_s_at) / RFU VCAN (11748164_a_at) / Fold change /veh VCAN (11748164_a_at) / RFU JSRP1 (11732532_at) / Fold change /veh JSRP1 (11732532_at) / RFU KRTAP10-11 (11738290_x_at) / Fold change /veh KRTAP10-11 (11738290_x_at) / RFU MYO3A (11730013_a_at) / Fold change /veh MYO3A (11730013_a_at) / RFU EBF3 (11725865_a_at) / Fold change /veh EBF3 (11725865_a_at) / RFU CAMK2N1 (11719241_x_at) / Fold change /veh CAMK2N1 (11719241_x_at) / RFU C5orf56 (11738088_a_at) / Fold change /veh C5orf56 (11738088_a_at) / RFU OLFML3 (11715873_a_at) / Fold change /veh OLFML3 (11715873_a_at) / RFU LOC100653217 /// NTM (11731650_a_at) / Fold change /veh LOC100653217 /// NTM (11731650_a_at) / RFU MAPK11 (11762145_a_at) / Fold change /veh MAPK11 (11762145_a_at) / RFU FIZ1 (11724087_x_at) / Fold change /veh FIZ1 (11724087_x_at) / RFU OASL (11726364_x_at) / Fold change /veh OASL (11726364_x_at) / RFU SOX15 (11748057_x_at) / Fold change /veh SOX15 (11748057_x_at) / RFU CD79A (11719716_a_at) / Fold change /veh CD79A (11719716_a_at) / RFU HIST1H1D (11736915_at) / Fold change /veh HIST1H1D (11736915_at) / RFU CASKIN2 (11723855_a_at) / Fold change /veh CASKIN2 (11723855_a_at) / RFU LOC730098 (11760151_x_at) / Fold change /veh LOC730098 (11760151_x_at) / RFU OR4N2 (11742367_at) / Fold change /veh OR4N2 (11742367_at) / RFU PRRT2 (11749266_a_at) / Fold change /veh PRRT2 (11749266_a_at) / RFU SNX32 (11753110_a_at) / Fold change /veh SNX32 (11753110_a_at) / RFU CDHR5 (11726645_a_at) / Fold change /veh CDHR5 (11726645_a_at) / RFU RCAN1 (11760418_a_at) / Fold change /veh RCAN1 (11760418_a_at) / RFU FAM167A (11723789_a_at) / Fold change /veh FAM167A (11723789_a_at) / RFU FAM26E (11764081_at) / Fold change /veh FAM26E (11764081_at) / RFU ISYNA1 (11749810_s_at) / Fold change /veh ISYNA1 (11749810_s_at) / RFU ACY1 (11761880_at) / Fold change /veh ACY1 (11761880_at) / RFU 11764098_at / Fold change /veh 11764098_at / RFU SAMD14 (11745864_x_at) / Fold change /veh SAMD14 (11745864_x_at) / RFU NPB (11741838_a_at) / Fold change /veh NPB (11741838_a_at) / RFU TMPRSS6 (11731388_a_at) / Fold change /veh TMPRSS6 (11731388_a_at) / RFU KRTAP10-2 (11738614_at) / Fold change /veh KRTAP10-2 (11738614_at) / RFU ARHGAP8 /// PRR5-ARHGAP8 (11727945_x_at) / Fold change /veh ARHGAP8 /// PRR5-ARHGAP8 (11727945_x_at) / RFU KRTAP5-7 /// NADSYN1 (11734609_at) / Fold change /veh KRTAP5-7 /// NADSYN1 (11734609_at) / RFU RASL12 (11751679_a_at) / Fold change /veh RASL12 (11751679_a_at) / RFU CDKN2B (11736163_a_at) / Fold change /veh CDKN2B (11736163_a_at) / RFU PRF1 (11729649_at) / Fold change /veh PRF1 (11729649_at) / RFU, ZNF638 /// ZNF638-IT1 / Fold change vs veh, ZNF638 /// ZNF638-IT1 / RFU, PANK3 / Fold change vs veh, PANK3 / RFU, SH3YL1 / Fold change vs veh, SH3YL1 / RFU, ZEB2 / Fold change vs veh, ZEB2 / RFU, NRIP1 / Fold change vs veh, NRIP1 / RFU, PTTG1IP / Fold change vs veh, PTTG1IP / RFU, CAPN2 / Fold change vs veh, CAPN2 / RFU, MED14 / Fold change vs veh, MED14 / RFU, SNORA58 / Fold change vs veh, SNORA58 / RFU, C1orf63 / Fold change vs veh, C1orf63 / RFU, LRRFIP1 / Fold change vs veh, LRRFIP1 / RFU, NDUFAF7 / Fold change vs veh, NDUFAF7 / RFU, SLC12A2 / Fold change vs veh, SLC12A2 / RFU, IBTK / Fold change vs veh, IBTK / RFU, ESF1 / Fold change vs veh, ESF1 / Fold change vs veh, TMEM50B / RFU, TAOK1 / Fold change vs veh, TAOK1 / RFU, ACBD3 / Fold change vs veh, ACBD3 / RFU, TMA16 / Fold change vs veh, TMA16 / RFU, RWDD3 / Fold change vs veh, RWDD3 / RFU, BCAT1 / Fold change vs veh, BCAT1 / RFU, EDEM3 / Fold change vs veh, EDEM3 / RFU, TMEM33 / Fold change vs veh, TMEM33 / RFU, WDR75 / Fold change vs veh, WDR75 / RFU, AHCTF1 / Fold change vs veh, AHCTF1 / RFU, TFRC / Fold change vs veh, TFRC / RFU, ZDHHC17 / Fold change vs veh, ZDHHC17 / RFU, NOM1 / Fold change vs veh, NOM1 / RFU, ARL8B / Fold change vs veh, ARL8B / RFU, ZBTB11 / Fold change vs veh, ZBTB11 / RFU, TAMM41 / Fold change vs veh, TAMM41 / RFU, KIAA1704 /// LOC100996395 / Fold change vs veh, KIAA1704 /// LOC100996395 / RFU, ING1 / Fold change vs veh, ING1 / RFU, TRMT61B / Fold change vs veh, TRMT61B / RFU, FUBP3 / Fold change vs veh, FUBP3 / RFU, TP53 / Fold change vs veh, TP53 / RFU, TNKS2 / Fold change vs veh, TNKS2 / RFU, ZFP14 / Fold change vs veh, ZFP14 / RFU, ACTR2 / Fold change vs veh, ACTR2 / RFU, PPP3R1 / Fold change vs veh, PPP3R1 / RFU, PIK3R1 / Fold change vs veh, PIK3R1 / RFU, HNRNPA1 / Fold change vs veh, HNRNPA1 / RFU, RNF170 / Fold change vs veh, RNF170 / RFU, ZNF28 / Fold change vs veh, ZNF28 / RFU, RNGTT / Fold change vs veh, RNGTT / RFU, OGT / Fold change vs veh, OGT / RFU, BRD1 / Fold change vs veh, BRD1 / RFU, MARS / Fold change vs veh, MARS / RFU, ZNF655 / Fold change vs veh, ZNF655 / RFU, FAHD1 / Fold change vs veh, FAHD1 / RFU, BDP1 / Fold change vs veh, BDP1 / RFU, LRRCC1 / Fold change vs veh, LRRCC1 / RFU, ARID1A / Fold change vs veh, ARID1A / RFU, ZNF146 / Fold change vs veh, ZNF146 / RFU, ZNF330 / Fold change vs veh, ZNF330 / RFU, GPN3 / Fold change vs veh, GPN3 / RFU, C9orf123 / Fold change vs veh, C9orf123 / RFU, N4BP2L2 / Fold change vs veh, N4BP2L2 / RFU, ARFIP1 / Fold change vs veh, ARFIP1 / RFU, FAM179B / Fold change vs veh, FAM179B / RFU, BCL10 / Fold change vs veh, BCL10 / RFU, UHRF1BP1L / Fold change vs veh, UHRF1BP1L / RFU, BET1 / Fold change vs veh, BET1 / RFU, CNOT2 / Fold change vs veh, CNOT2 / RFU, ZNF268 / Fold change vs veh, ZNF268 / Fold change vs veh, ZNF507 / RFU, DGCR2 / Fold change vs veh, DGCR2 / RFU, WDSUB1 / Fold change vs veh, WDSUB1 / Fold change vs veh, HSP90B1 /// MIR3652 / RFU, ADSS / Fold change vs veh, ADSS / RFU, GK / Fold change vs veh, GK / RFU, ZNF148 / Fold change vs veh, ZNF148 / RFU, TAF9 / Fold change vs veh, TAF9 / RFU, SLC1A5 / Fold change vs veh, SLC1A5 / RFU, SLMO2 / Fold change vs veh, SLMO2 / RFU, ABCC4 / Fold change vs veh, ABCC4 / RFU, LOC101060439 /// RAP1B / Fold change vs veh, LOC101060439 /// RAP1B / RFU, RFX7 / Fold change vs veh, RFX7 / RFU, GTPBP10 / Fold change vs veh, GTPBP10 / RFU, CNEP1R1 / Fold change vs veh, CNEP1R1 / RFU, BIVM-ERCC5 /// ERCC5 / Fold change vs veh, BIVM-ERCC5 /// ERCC5 / RFU, ILF3 / Fold change vs veh, ILF3 / RFU 11762660_at / Fold change /veh 11762660_at / RFU VCAN (11757783_s_at) / Fold change /veh VCAN (11757783_s_at) / RFU DDX43 (11728927_at) / Fold change /veh DDX43 (11728927_at) / RFU KRT8 (11758188_x_at) / Fold change /veh KRT8 (11758188_x_at) / RFU NKD1 (11759106_at) / Fold change /veh NKD1 (11759106_at) / RFU SRD5A1 (11742802_a_at) / Fold change /veh SRD5A1 (11742802_a_at) / RFU TPSAB1 /// TPSB2 (11721975_s_at) / Fold change /veh TPSAB1 /// TPSB2 (11721975_s_at) / RFU GSTM3 (11746129_a_at) / Fold change /veh GSTM3 (11746129_a_at) / RFU IL23R (11737362_x_at) / Fold change /veh IL23R (11737362_x_at) / RFU TMEM51 (11727254_a_at) / Fold change /veh TMEM51 (11727254_a_at) / RFU PIWIL2 (11732686_x_at) / Fold change /veh PIWIL2 (11732686_x_at) / RFU ORM1 (11744905_x_at) / Fold change /veh ORM1 (11744905_x_at) / RFU CCDC152 (11743942_at) / Fold change /veh CCDC152 (11743942_at) / RFU ECM1 (11717891_a_at) / Fold change /veh ECM1 (11717891_a_at) / RFU IL23R (11748794_a_at) / Fold change /veh IL23R (11748794_a_at) / RFU TNFAIP8L3 (11732012_x_at) / Fold change /veh TNFAIP8L3 (11732012_x_at) / RFU MBOAT4 (11741988_at) / Fold change /veh MBOAT4 (11741988_at) / RFU 11764193_at / Fold change /veh 11764193_at / RFU TMEM53 (11763286_at) / Fold change /veh TMEM53 (11763286_at) / RFU MAGEB2 (11727129_at) / Fold change /veh MAGEB2 (11727129_at) / RFU TMEM200A (11744735_a_at) / Fold change /veh TMEM200A (11744735_a_at) / RFU CCDC152 (11751479_a_at) / Fold change /veh CCDC152 (11751479_a_at) / RFU FAM211A (11726209_a_at) / Fold change /veh FAM211A (11726209_a_at) / RFU RGS16 (11746705_a_at) / Fold change /veh RGS16 (11746705_a_at) / RFU VCAN (11755009_s_at) / Fold change /veh VCAN (11755009_s_at) / RFU RHOB (11743442_s_at) / Fold change /veh RHOB (11743442_s_at) / RFU RGS16 (11720943_a_at) / Fold change /veh RGS16 (11720943_a_at) / RFU RGS16 (11720944_at) / Fold change /veh RGS16 (11720944_at) / RFU, VPS4B / Fold change vs veh, VPS4B / RFU, CREB1 / Fold change vs veh, CREB1 / RFU, DNAJC13 / Fold change vs veh, DNAJC13 / RFU, GNAQ / Fold change vs veh, GNAQ / RFU, CDK5R1 / Fold change vs veh, CDK5R1 / RFU, ZRANB3 / Fold change vs veh, ZRANB3 / RFU, CUL4A / Fold change vs veh, CUL4A / RFU, CCNY / Fold change vs veh, CCNY / RFU, UFL1 / Fold change vs veh, UFL1 / RFU, COG3 / Fold change vs veh, COG3 / RFU, DIAPH2 / Fold change vs veh, DIAPH2 / RFU, SKA2 / Fold change vs veh, SKA2 / RFU, AFF3 / Fold change vs veh, AFF3 / RFU, LMF1 / Fold change vs veh, LMF1 / RFU, IPO11 / Fold change vs veh, IPO11 / RFU, DFFB / Fold change vs veh, DFFB / RFU, FOXP1 / Fold change vs veh, FOXP1 / RFU, CARD8 / Fold change vs veh, CARD8 / RFU, STRN3 / Fold change vs veh, STRN3 / RFU, ADK / Fold change vs veh, ADK / RFU, RASSF2 / Fold change vs veh, RASSF2 / RFU, WIPF1 / Fold change vs veh, WIPF1 / RFU, LARP1B / Fold change vs veh, LARP1B / RFU, RASA1 / Fold change vs veh, RASA1 / RFU, RB1 / Fold change vs veh, RB1 / RFU, PPFIA1 / Fold change vs veh, PPFIA1 / RFU, MAT2A / Fold change vs veh, MAT2A / RFU, CCT5 / Fold change vs veh, CCT5 / RFU, WDR92 / Fold change vs veh, WDR92 / RFU, CUX1 / Fold change vs veh, CUX1 / RFU, TTC7A / Fold change vs veh, TTC7A / RFU, TMEM135 / Fold change vs veh, TMEM135 / RFU, DEPTOR / Fold change vs veh, DEPTOR / RFU, CPM / Fold change vs veh, CPM / RFU, DNAJB6 / Fold change vs veh, DNAJB6 / RFU, CACNA2D3 / Fold change vs veh, CACNA2D3 / RFU, DTX4 / Fold change vs veh, DTX4 / RFU, TFCP2 / Fold change vs veh, TFCP2 / RFU, GMCL1 /// GMCL1P1 / Fold change vs veh, GMCL1 /// GMCL1P1 / RFU, AEBP2 / Fold change vs veh, AEBP2 / RFU, SNHG1 /// SNORD22 /// SNORD25 /// SNORD26 /// SNORD27 /// SNORD28 /// SNORD29 /// SNORD31 / Fold change vs veh, SNHG1 /// SNORD22 /// SNORD25 /// SNORD26 /// SNORD27 /// SNORD28 /// SNORD29 /// SNORD31 / Fold change (Aza/veh), C12orf56 (ProbeSet 11735607_a_at) / Fold change (ACY-1035/veh), C12orf56 (ProbeSet 11735607_a_at) / Fold change (Aza/veh), FGFR1OP (ProbeSet 11751329_s_at) / Fold change (ACY-1035/veh), FGFR1OP (ProbeSet 11751329_s_at) / Fold change (Aza/veh), VPS36 (ProbeSet 11739960_a_at) / Fold change (ACY-1035/veh), VPS36 (ProbeSet 11739960_a_at) / RFU SYPL1 (11715823_x_at) / Fold change /veh SYPL1 (11715823_x_at) / RFU IGFBP7 (11715501_s_at) / Fold change /veh IGFBP7 (11715501_s_at) / RFU REEP3 (11722064_at) / Fold change /veh REEP3 (11722064_at) / RFU IGLL1 (11728026_x_at) / Fold change /veh IGLL1 (11728026_x_at): dose or concentration left out as unconfirmed
Details: MV-4-11 cells, 48 hours

Nc1ncn([C@@H]2O[C@H](CO)[C@@H](O)[C@H]2O)c(=O)n1 [azacitidine]
Fold change /veh DDX43 (11728927_at): 1.23
